Key:
[1] = target: Cucumis melo ACS8 variant Cmacs8_L45F (L45→F), SEQ ID No 15 (Cucumis melo, UniProt A0A0S2C3P7, L45F); format: biochemical; details: PLP 5 μm; pH 8.5, 25° C.
Experimental: (§1) Dosing the Transforming Activity of Methionine S-adenosyl into Aminocyclopropane Carboxylate by the 1-aminocyclopropane-1-carboxylate Synthase 8 (ACS8)
(§2) The enzymatic activity of the ACS8 is measured in vitro by following, by 265-nm spectrophotometry, the formation of 5′-methylthioadenosine (MTA) after involving methionine S-adenosyl, deaminase and different PLP concentrations (pyridoxal 5′-phosphate).
The bacterial strain Escherichia coli BL21(DE3)pLYSS is used for the expression of the enzyme. The cloning vector used is the plasmid pET15b (NOVAGEN) which carries the promoter T7 and comprises resistance to ampicillin. S-adenosyl Methionine (SAM), Pyridoxal 5′phosphate (PLP) and 5′Adenylic Acid Deaminase of Aspergillus (deaminase) are available from the SIGMA company. […]
Due to the presence of a Histidine tag associated with each of the ACS8, the latter are purified by using a nickel column (Ni-IDA 15 ml) previously balanced with TRIS at PH8 and NaCl (500 mM). After passing the solution containing recombinant ACS8 to be purified, the column is then washed with TRIS at PH8 (50 mM) and NaCl (500 mM) added with imidazole (10 mM) until no protein can be detected at the output any longer. […]

[2] = target: Cucumis melo ACS8 variant Cmacs8_G72E (G72E), SEQ ID not listed (Cucumis melo, UniProt A0A0S2C3P7, G72E); assay: Transforming activity of methionine S-adenosyl into aminocyclopropane carboxylate (MTA formation at 265 nm); format: biochemical; details: pH 8.5, 25° C.
Experimental: as §1, §2
(§3) The bacterial strain Escherichia coli BL21(DE3)pLYSS is used for the expression of the enzyme. The cloning vector used is the plasmid pET15b (NOVAGEN) which carries the promoter T7 and comprises resistance to ampicillin. S-adenosyl Methionine (SAM), Pyridoxal 5′phosphate (PLP) and 5′Adenylic Acid Deaminase of Aspergillus (deaminase) are available from the SIGMA company.
(§4) These bacteria Escherichia coli BL21(DE3)pLYSS transformed with the construct carrying the 1-aminocyclopropane-1-carboxylate synthase 8 (ACS8) are incubated in 25 ml LURIA-BERTANI medium (tryptone 10 g/L, yeast extract 5 g/L, NaCl 10 g/L) added with ampicillin and chloramphenicol (50 μg/ml each) overnight at 37° C. This pre-culture is used to inoculate 2 litres of the same medium added with ampicillin (50 μg/ml) and the cells are cultivated at 37° C. in a stirred incubator (180 rpm) up to 0.6 Optical Density (DO=600 nm). IPTG is added (0.5 mM) so as to induce the protein expression during a new 5-hour culture phase at 25° C. Cells are centrifuged and kept overnight at −45° C. Cells are then re-suspended in 15 ml TrisNaCl (50 mM, pH7.9, 500 mM, respectively) then subjected to ice sonication in the presence of a protease inhibitor (phenylmethanesulfonyl fluoride), leupeptin, pepstatin and aprotinin, 10 μg/ml each). The cellular debris are removed during a new centrifugation step at 13,000 g during 15 minutes and the supernatant is immediately used for enzymatic purification.
(§5) Due to the presence of a Histidine tag associated with each of the ACS8, the latter are purified by using a nickel column (Ni-IDA 15 ml) previously balanced with TRIS at PH8 and NaCl (500 mM). After passing the solution containing recombinant ACS8 to be purified, the column is then washed with TRIS at PH8 (50 mM) and NaCl (500 mM) added with imidazole (10 mM) until no protein can be detected at the output any longer. The ACS8 are then eluted with the same buffer solution added with imidazole at 100 mM, then dialysed (KPhos 50 mM á PH8.5) before concentration (MILLIPORE AMICON ULTRA DEVICE, 5000 MWC0). The concentrated fraction (20 mg/ml) of ACS8 is aliquoted and stored with glycerol at −45° C. The purification of protein is followed by capillary electrophoresis (EXPERION DEVICE—BIO RAD) with a PRO260 chip.

[3] = target: Cucumis melo ACS8 variant Cmacs8_S295F (S295→F), SEQ ID No 18 (Cucumis melo, UniProt A0A0S2C3P7, S295F); assay: as above; format: biochemical; details: pH 8.5, 25° C.
Experimental: as §1, §2, §3, §4, §5

[4] = target: Cucumis melo ACS8 (1-aminocyclopropane-1-carboxylate synthase 8), CmACS8, wild, SEQ ID No 12 (Cucumis melo, UniProt A0A0S2C3P7); assay: as above; format: biochemical; details: pH 8.5, 25° C.
Experimental: as §1, §2, §3, §4, §5

[5] = target: T1, Cucumis sativus ACS8 (1-aminocyclopropane-1-carboxylate synthase 8), CsACS8, wild, SEQ ID No 3 (Cucumis sativus, UniProt A0A0A0LKW1); assay: as above; format: biochemical; details: pH 8.5, 25° C.
T1 construct: N-terminus MASLSSKASHDSHGQNSS
T1 sequence (A0A0A0LKW1 1-440): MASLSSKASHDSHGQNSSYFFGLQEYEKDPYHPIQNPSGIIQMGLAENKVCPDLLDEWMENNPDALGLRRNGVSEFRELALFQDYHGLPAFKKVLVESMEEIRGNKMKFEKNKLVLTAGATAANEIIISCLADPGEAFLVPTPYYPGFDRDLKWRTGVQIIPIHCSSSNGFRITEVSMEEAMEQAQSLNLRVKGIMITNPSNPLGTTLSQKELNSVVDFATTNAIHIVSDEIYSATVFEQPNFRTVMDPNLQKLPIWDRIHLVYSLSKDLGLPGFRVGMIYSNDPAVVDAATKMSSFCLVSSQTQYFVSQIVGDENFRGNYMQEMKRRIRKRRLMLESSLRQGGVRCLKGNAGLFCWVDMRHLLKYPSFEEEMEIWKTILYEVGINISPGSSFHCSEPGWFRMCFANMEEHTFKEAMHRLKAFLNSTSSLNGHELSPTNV
Experimental: as §1, §2, §3, §4, §5

monoecious melon plants = details: monoecious plants treated by ethrel; prior art; cited from earlier work
[6] = test system: androecious plants (cucurbitaceae); assay: Induction of female flowers in androecious plants by ethrel; format: in vivo; details: androecious plants treated with ethrel
Text: The inventors wished to study the transmission of the androecious phenotype from one generation to the other. However, due to the nature of the plants, it is obviously impossible to fecundate an androecious plant with itself or another androecious plant.
The inventors have then treated the plants with ethrel, a growth regulator known for inducing female flowers in cucurbitaceae. […] The seeds derived from this fruit have been planted to produce plants which phenotype is androecious: the androecious phenotype of the present invention is thus heritable.

Cucumis melo ACS8 (1-aminocyclopropane-1-carboxylate synthase 8), CmACS8, wild, SEQ ID No 12, sequence (A0A0S2C3P7 1-440): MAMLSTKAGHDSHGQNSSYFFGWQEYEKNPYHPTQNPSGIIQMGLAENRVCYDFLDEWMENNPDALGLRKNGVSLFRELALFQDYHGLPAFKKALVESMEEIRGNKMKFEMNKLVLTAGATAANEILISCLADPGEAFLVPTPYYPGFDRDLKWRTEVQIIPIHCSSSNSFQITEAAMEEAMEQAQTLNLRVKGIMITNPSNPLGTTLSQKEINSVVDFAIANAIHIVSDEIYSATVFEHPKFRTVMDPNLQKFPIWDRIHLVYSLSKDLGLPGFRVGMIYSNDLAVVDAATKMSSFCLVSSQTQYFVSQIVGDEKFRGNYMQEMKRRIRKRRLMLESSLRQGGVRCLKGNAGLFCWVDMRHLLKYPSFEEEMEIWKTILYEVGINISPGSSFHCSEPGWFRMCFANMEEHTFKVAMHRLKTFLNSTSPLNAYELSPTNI
Cucumis melo ACS8 variant Cmacs8_G72E (G72E), SEQ ID not listed, sequence (A0A0S2C3P7 entry or part of it G72E): as the sequence (A0A0S2C3P7 1-440) above, with G72E counted along it
Cucumis melo ACS8 variant Cmacs8_S295F (S295→F), SEQ ID No 18, sequence (A0A0S2C3P7 entry or part of it S295F): as the sequence (A0A0S2C3P7 1-440) above, with S295F counted along it
Cucumis melo ACS8 variant Cmacs8_L45F (L45→F), SEQ ID No 15, sequence (A0A0S2C3P7 entry or part of it L45F): as the sequence (A0A0S2C3P7 1-440) above, with L45F counted along it

| Structure (SMILES) | Km [1] | Km ([2]; PLP 5 μm) | Km ([2]; PLP 100 μm) | Km ([3]; PLP 5 μm) | Km ([3]; PLP 100 μm) | Km ([4]; PLP 5 μm) | Km ([4]; PLP 100 μm) | Km ([5]; PLP 5 μm) | Km ([5]; PLP 100 μm) | effect on male flowers (monoecious melon plants) | production of female flowers after treatment [6] |
| --- | --- | --- | --- | --- | --- | --- | --- | --- | --- | --- | --- |
| C[S+](CC[C@H](N)C(=O)[O-])C[C@H]1O[C@@H](n2cnc3c(N)ncnc32)[C@H](O)[C@@H]1O (some centres unmarked) [S-adenosyl Methionine] | 23 ± 4 µM | 17 ± 5 µM | 15 ± 5 µM | 16 ± 5 µM | 15 ± 5 µM | 20 ± 5 µM | 20 ± 5 µM | 20 ± 6 µM | 25 ± 6 µM | – | – |
| O=P(O)(O)CCCl [ethrel] | – | – | – | – | – | – | – | – | – | temporary disappearance of male flowers | briefly produced female flowers |
